Data reported in patent US20240327392A1, “HETEROCYCLOALKYL-SUBSTITUTED POLYHETEROAZOLE DERIVATIVES AS MEDICAMENTS FOR TREATING AND/OR PREVENTING RS VIRUS INFECTIONS” (ALBIUS SCIENCES ALPHA PRIVATE LIMITED, priority 2021, published 2024).
pIC50: −log10 of the molar value. Where two headings read alike, the source gives them in different places.

Test system: human RS virus A2 strain
Experiment: In vitro test for anti-RS virus proliferation inhibitory activity (quantitative RT-PCR of RS virus RNA copy number in infected Vero cells)
Format: cell-based
Details: 72 h, Vero cells infected with human RS virus A2 strain, 3 days of incubation, read-out: Anti-RS virus Activity
Outline: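 Vero cells infected with RSV A2 (1.7×10^4 TCID50/mL in inoculum mix) with compound in 10% FCS EMEM, 3 days at 37 °C, 5% CO2. Lysate viral N-gene RNA quantified by one-step SYBR qRT-PCR; copy number by comparative Ct relative to untreated infected cells.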

[1] = RS virus RNA copy number by quantitative RT-PCR

pIC50 [1] | pIC50 (RS virus N gene RNA copy number by quantitative RT-PCR) | SMILES
> 5.00 | – | O=C(OCc1ccccc1)N1CCC[C@H]1c1nc(CCCc2ccccc2)no1 [Compound 1J, Benzyl (S)-2-(3-(3-phenylpropyl)-1,2,4-oxadiazol-5-yl) pyrrolidine-1-carboxylate]
– | < 4.30 | CS(=O)(=O)N1C[C@H](O)C[C@H]1c1nc(CCCc2ccccc2)no1 [Compound 3C, 3-(3-phenylpropyl)-5-[(2S,4R)-4-hydroxy-1-methanesulfonylpyrrolidin-2-yl]-1,2,4-oxadiazole]
> 5.00 | – | O=S(=O)(c1ccccc1)N1CC(c2ccccc2)C[C@H]1c1nc(CCCc2ccccc2)no1 (stereo in doubt) [Compound 7D, 3-(3-phenylpropyl)-5-[(2S,4S)-1-benzenesulfonyl-4-phenylpyrrolidin-2-yl]-1,2,4-oxadiazole]
> 5.00 | – | O=S(=O)(c1ccc(F)cc1)N1CCC[C@H]1c1cn(Cc2ccccc2)nn1 [Compound 39AJ, (S)-1-Benzyl-4-(1-((4-fluorophenyl)sulfonyl)pyrrolidin-2-yl)-1H-1,2,3-triazole]
4.30 to 5.00 | – | O=S(=O)(C1CCCCC1)N1CCCCC1c1ncc(-c2ccccc2)[nH]1 (stereo not drawn) [Compound 40B]
> 5.00 | – | CN(C)c1cccc2c(S(=O)(=O)N3C[C@H](F)C[C@H]3c3nc(CCCc4ccccc4)no3)cccc12 [Compound 8AL, 5-(((2S,4R)-4-fluoro-2-(3-(3-phenylpropyl)-1,2,4-oxadiazole-5-yl)pyrrolidin-1-yl)sulfonyl)-N,N-dimethylnaphthalen-1-amine]
